Assay results: article PMC7901654, “Bioisosteric Discovery of NPA101.3, a Second-Generation RET/VEGFR2 Inhibitor Optimized for Single-Agent Polypharmacology” (Journal of Medicinal Chemistry, 2020)

Legend:
human VEGFR2 = biological target: T1, human VEGFR2 (Homo sapiens, UniProt P35968); test: Ligand-induced VEGFR2 autophosphorylation in transfected HEK293 cells; type: cell-based; details: 2 h, VEGFA 100 ng/mL
T1 construct: expressed in transfected cells; host or cells: HEK293, transient transfection
T1 sequence (P35968 20-1356): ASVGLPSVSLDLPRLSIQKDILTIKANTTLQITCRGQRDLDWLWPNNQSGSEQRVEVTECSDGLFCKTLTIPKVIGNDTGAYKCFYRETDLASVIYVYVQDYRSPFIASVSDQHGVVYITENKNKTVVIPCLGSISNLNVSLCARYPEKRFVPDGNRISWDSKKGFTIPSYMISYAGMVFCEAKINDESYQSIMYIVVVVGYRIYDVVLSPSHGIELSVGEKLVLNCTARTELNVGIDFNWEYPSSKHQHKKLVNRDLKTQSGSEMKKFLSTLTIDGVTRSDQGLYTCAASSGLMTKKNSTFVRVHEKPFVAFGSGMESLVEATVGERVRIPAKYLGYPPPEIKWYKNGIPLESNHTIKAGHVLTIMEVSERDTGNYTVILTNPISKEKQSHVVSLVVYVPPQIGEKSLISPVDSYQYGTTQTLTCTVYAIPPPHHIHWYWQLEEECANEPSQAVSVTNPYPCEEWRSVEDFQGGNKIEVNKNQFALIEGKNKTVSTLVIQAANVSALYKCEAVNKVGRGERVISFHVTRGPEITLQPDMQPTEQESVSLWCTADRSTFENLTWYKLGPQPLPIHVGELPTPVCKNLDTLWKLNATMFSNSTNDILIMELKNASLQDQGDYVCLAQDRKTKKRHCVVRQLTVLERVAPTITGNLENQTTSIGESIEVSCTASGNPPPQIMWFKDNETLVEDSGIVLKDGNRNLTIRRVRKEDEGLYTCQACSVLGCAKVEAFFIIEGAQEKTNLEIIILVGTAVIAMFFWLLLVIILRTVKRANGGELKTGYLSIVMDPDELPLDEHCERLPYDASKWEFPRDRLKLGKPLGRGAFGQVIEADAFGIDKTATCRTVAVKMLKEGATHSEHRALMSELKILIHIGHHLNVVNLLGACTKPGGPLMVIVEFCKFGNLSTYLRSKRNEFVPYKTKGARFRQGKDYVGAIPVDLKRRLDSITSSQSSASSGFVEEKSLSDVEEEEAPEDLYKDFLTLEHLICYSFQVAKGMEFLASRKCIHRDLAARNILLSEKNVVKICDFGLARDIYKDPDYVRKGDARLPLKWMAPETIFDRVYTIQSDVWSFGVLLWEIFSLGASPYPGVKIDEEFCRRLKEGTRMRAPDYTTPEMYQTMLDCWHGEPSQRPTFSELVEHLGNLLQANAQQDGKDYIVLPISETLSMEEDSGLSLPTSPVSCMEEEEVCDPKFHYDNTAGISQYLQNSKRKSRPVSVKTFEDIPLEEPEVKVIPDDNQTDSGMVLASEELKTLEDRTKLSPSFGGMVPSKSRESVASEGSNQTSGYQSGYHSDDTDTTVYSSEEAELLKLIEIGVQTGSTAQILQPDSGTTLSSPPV
Description: (§1) Fibroblasts transfected with RET/C634R were treated with increasing doses of NPA101.3, ranging from 0.1 to 10.0 nM. RET autophosphorylation was assessed by Western blotting using two different antibodies that can recognize phosphorylated Y905, located in the RET kinase activation loop, or Y1062, a multidocking site involved in RET downstream signaling.[41]
(§2) Figure 4 NPA101.3-mediated inhibition of phosphorylation and signaling of oncogenic RET mutants and VEGFR2 in intact cells. Serum-starved RAT1 cells exogenously expressing the (A and B) indicated RET point mutants or (C) NIH3T3 cells exogenously expressing the indicated RET rearranged mutants were treated for 2 h with the indicated concentrations of the compound. Total cell lysates (50 μg) were subjected to immunoblotting with anti-phospho-Y1062 (αp1062) and anti-phospho-Y905 (αp905) RET antibodies. The blots were normalized using the anti-RET (αRET) antibody. (D) HEK293 cells were transiently transfected with human VEGFR2; 36 h after transfection, cells were serum starved for 12 h. The indicated doses of the compound or vehicle (NT) were added for 2 h, and then VEGFA (100 ng/mL) stimulation was applied for 15 min. […]
(§3) Protein lysates were prepared according to standard procedures. […] Immune complexes were detected with the enhanced chemiluminescence kit (Amersham Pharmacia Biotech, Little Chalfont, U.K.). […]

RET/C634R = biological target: T2, RET/C634R (Homo sapiens, UniProt P07949, C634R); test: RET autophosphorylation (Y905, Y1062) Western blot in transfected fibroblasts (RAT1); type: cell-based; details: 2 h
T2 construct: expressed in transfected cells; host or cells: RAT1 fibroblasts (gift of M. Billaud)
T2 sequence (P07949 29-1072 isoform P07949-2 C634R limits assumed): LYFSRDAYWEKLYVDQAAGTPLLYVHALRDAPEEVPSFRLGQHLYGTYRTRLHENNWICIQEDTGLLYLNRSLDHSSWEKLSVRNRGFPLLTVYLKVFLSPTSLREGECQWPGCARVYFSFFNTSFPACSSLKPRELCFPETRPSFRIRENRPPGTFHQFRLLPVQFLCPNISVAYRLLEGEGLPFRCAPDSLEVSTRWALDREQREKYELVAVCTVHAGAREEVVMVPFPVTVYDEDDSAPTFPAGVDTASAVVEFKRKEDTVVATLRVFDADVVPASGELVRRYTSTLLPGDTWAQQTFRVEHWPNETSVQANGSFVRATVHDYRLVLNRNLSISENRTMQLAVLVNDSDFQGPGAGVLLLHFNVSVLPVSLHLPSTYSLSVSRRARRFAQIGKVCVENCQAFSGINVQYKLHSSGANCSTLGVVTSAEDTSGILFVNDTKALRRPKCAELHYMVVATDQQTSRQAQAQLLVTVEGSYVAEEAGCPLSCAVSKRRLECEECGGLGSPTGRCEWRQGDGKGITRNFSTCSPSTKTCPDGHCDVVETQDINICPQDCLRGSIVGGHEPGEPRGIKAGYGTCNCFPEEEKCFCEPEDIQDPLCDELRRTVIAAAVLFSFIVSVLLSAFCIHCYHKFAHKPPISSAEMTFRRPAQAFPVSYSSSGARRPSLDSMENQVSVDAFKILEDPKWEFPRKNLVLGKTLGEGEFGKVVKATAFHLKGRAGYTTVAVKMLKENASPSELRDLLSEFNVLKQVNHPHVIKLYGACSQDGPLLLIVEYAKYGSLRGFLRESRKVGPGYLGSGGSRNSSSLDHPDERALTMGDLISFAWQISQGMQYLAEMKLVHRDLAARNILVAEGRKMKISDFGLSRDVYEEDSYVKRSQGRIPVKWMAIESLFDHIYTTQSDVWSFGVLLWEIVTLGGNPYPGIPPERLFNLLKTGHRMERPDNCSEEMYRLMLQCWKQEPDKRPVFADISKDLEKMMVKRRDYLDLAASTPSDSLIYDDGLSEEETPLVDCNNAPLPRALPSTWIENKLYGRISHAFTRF
Description: as §1, §2, §3

[1] = test system: RET-driven Ba/F3 cells (RET/C634R, RET/M918T, CCDC6-RET); test: Cell growth curves, RET-driven Ba/F3 cells taken together; type: cell-based, murine; details: Mus musculus, BaF3; range over RET-transfected Ba/F3 lines; read-out: IC50, RET-driven Ba/F3 cell proliferation
Description: The murine pro-B cell line Ba/F3 requires IL-3 (interleukin 3) for proliferation and survival; this dependency is bypassed by active tyrosine kinases. Therefore, the Ba/F3 cell line is a standard cell culture model for determining the activity and drug-mediated inhibition of tyrosine kinases.[42] Accordingly, stable transfection of RET/C634R, RET/M918T, and CCDC6-RET oncoproteins promotes IL-3-independent growth (Figure 5).
Nthy-ory-3-1 (10000 per well), TPC-1 (10000 per well), MZ-CRC-1 (100000 per well), TT (200000 per well), Lc-2/ad (100000 per well), BCPAP (10000 per well), 8505-C (10000 per well), PC-9 (10000 per well), A549 (10000 per well), CALU-1 (10000 per well), NIH3T3 RET/C634Y (10000 per well), and NIH3T3 HRAS/G12V (10000 per well) were seeded in six-well tissue culture plates. Cells were kept in 2% (TPC-1), 5% (Nthy-ori-3-1), or 10% (BCPAP, 8505-C, CALU-1, A549, PC-9, TT, MZ-CRC-1, and Lc-2/ad) fetal calf serum or in 2% (NIH3T3 RET/C634Y and HRAS/G12V) calf serum. Ba/F3 cells (200000 per well in 2 mL) were seeded in six-well tissue culture plates and kept in 10% fetal calf serum. […] Cells were counted every day (Ba/F3), every 2 days (fibroblasts), or every 2–3 days (human cell lines). […] IC50 doses were calculated through a curve fitting analysis from last day of growth curves using the PRISM software program (Graphpad Software Inc.).

CC(C)(C)c1cc(NC(=O)Cc2ccc(-n3cnc4cc(-c5ccc(S(C)(=O)=O)cc5)ccc43)cc2)no1 [NPA101.3]
ligand-induced VEGFR2 autophosphorylation (human VEGFR2; 1.0 nM): reduced
inhibition of ligand-induced VEGFR2 autophosphorylation (human VEGFR2; 10.0 nM): virtually total
RET phosphorylation (Y905, Y1062) (RET/C634R; 0.3 nM): started to be inhibited
RET phosphorylation (Y905, Y1062) (RET/C634R; 3.0 nM): almost completely blocked
IC50 [1]: 1.6 to 3.1 nM
